Reference: ChEMBL document CHEMBL5131406, “New bis- and tetrakis-1,2,3-triazole derivatives: Synthesis, DNA cleavage, molecular docking, antimicrobial, antioxidant activity and acid dissociation constants” (2022)
≈ marks a conversion by molar mass, not a printed value. Calls of active or inactive are those of the source. No cut-off for these calls is given here.

Experiments:
Escherichia coli = experiment: Antibacterial activity against Escherichia coli; assay type: functional
Enterococcus hirae = experiment: Antibacterial activity against Enterococcus hirae; assay type: functional
[1] = Antioxidant activity assessed as ferrous ion chelating activity at 200 ug/ml; assay type: functional; conditions: dose 200.0 µg/ml
Bacillus cereus = experiment: Antibacterial activity against Bacillus cereus; assay type: functional
[2] = Antioxidant activity assessed as DPPH radical scavenging activity at 10 to 200 ug/ml; assay type: functional; conditions: dose 10-200 µg/ml
Legionella pneumophila = experiment: Antibacterial activity against Legionella pneumophila subsp. pneumophila; assay type: functional
Pseudomonas aeruginosa = experiment: Antibacterial activity against Pseudomonas aeruginosa; assay type: functional
DNA = experiment: Induction of Escherichia coli supercoiled pBR322 DNA cleavage assessed as increase in formation of linear form of DNA at 250 ug/ml by agarose gel electrophoresis; assay type: nucleic-acid assay; conditions: dose 250.0 µg/ml
Candida tropicalis = experiment: Antifungal activity against Candida tropicalis; assay type: functional
Staphylococcus aureus = experiment: Antibacterial activity against Staphylococcus aureus; assay type: functional
Candida albicans = experiment: Antifungal activity against Candida albicans; assay type: functional
[3] = Antioxidant activity assessed as ferrous ion chelating activity at 10 ug/ml; assay type: functional; conditions: dose 10.0 µg/ml

| SMILES | MIC (Escherichia coli) | MIC (Enterococcus hirae) | Activity [1] | MIC (Bacillus cereus) | Activity [2] | MIC (Legionella pneumophila) | MIC (Pseudomonas aeruginosa) | Activity (DNA) | MIC (Candida tropicalis) | MIC (Staphylococcus aureus) | MIC (Candida albicans) | Activity [3] |
| --- | --- | --- | --- | --- | --- | --- | --- | --- | --- | --- | --- | --- |
| CCOC(=O)c1cn(CCc2cn(CC(=O)Nc3ccc(NC(=O)Cn4cc(CCn5cc(C(=O)OCC)nn5)nn4)cc3)nn2)nn1 | 128 µg/mL (≈ 194 µM) | 64 µg/mL (≈ 96.9 µM) | 33.5% | 32 µg/mL (≈ 48.4 µM) | Active | 32 µg/mL (≈ 48.4 µM) | 64 µg/mL (≈ 96.9 µM) | Active | 64 µg/mL (≈ 96.9 µM) | 32 µg/mL (≈ 48.4 µM) | 128 µg/mL (≈ 194 µM) | – |
| O=C(Cn1cc(CC2CCCCC2)nn1)Nc1ccc(NC(=O)Cn2cc(CC3CCCCC3)nn2)cc1 | 4 µg/mL (≈ 7.71 µM) | 8 µg/mL (≈ 15.4 µM) | 33.8% | 64 µg/mL (≈ 123 µM) | Active | 16 µg/mL (≈ 30.8 µM) | 64 µg/mL (≈ 123 µM) | Active | 32 µg/mL (≈ 61.7 µM) | 64 µg/mL (≈ 123 µM) | 16 µg/mL (≈ 30.8 µM) | – |
| CC(C)CCc1cn(CC(=O)Nc2ccc(NC(=O)Cn3cc(CCC(C)C)nn3)cc2)nn1 | 128 µg/mL (≈ 274 µM) | 32 µg/mL (≈ 68.6 µM) | 70.8% | 64 µg/mL (≈ 137 µM) | Active | 32 µg/mL (≈ 68.6 µM) | 64 µg/mL (≈ 137 µM) | Active | 32 µg/mL (≈ 68.6 µM) | 64 µg/mL (≈ 137 µM) | 64 µg/mL (≈ 137 µM) | 22% |
| O=C(Cn1cc(CCn2cc(CC3CCCCC3)nn2)nn1)Nc1ccc(NC(=O)Cn2cc(CCn3cc(CC4CCCCC4)nn3)nn2)cc1 | 128 µg/mL (≈ 181 µM) | 16 µg/mL (≈ 22.6 µM) | 48.9% | 64 µg/mL (≈ 90.3 µM) | Active | 32 µg/mL (≈ 45.1 µM) | 64 µg/mL (≈ 90.3 µM) | Active | 4 µg/mL (≈ 5.64 µM) | 64 µg/mL (≈ 90.3 µM) | 8 µg/mL (≈ 11.3 µM) | – |
| O=C(Cn1cc(CCn2cc(-c3ccccc3)nn2)nn1)Nc1ccc(NC(=O)Cn2cc(CCn3cc(-c4ccccc4)nn3)nn2)cc1 | 128 µg/mL (≈ 191 µM) | 16 µg/mL (≈ 23.9 µM) | 27.1% | 128 µg/mL (≈ 191 µM) | Active | 32 µg/mL (≈ 47.9 µM) | 64 µg/mL (≈ 95.7 µM) | Active | 64 µg/mL (≈ 95.7 µM) | 64 µg/mL (≈ 95.7 µM) | 64 µg/mL (≈ 95.7 µM) | – |
| O=C(Cn1cc(CCn2cc(C3CC3)nn2)nn1)Nc1ccc(NC(=O)Cn2cc(CCn3cc(C4CC4)nn3)nn2)cc1 | 128 µg/mL (≈ 215 µM) | 64 µg/mL (≈ 107 µM) | 42.8% | 64 µg/mL (≈ 107 µM) | Active | 32 µg/mL (≈ 53.6 µM) | 64 µg/mL (≈ 107 µM) | Active | 64 µg/mL (≈ 107 µM) | 64 µg/mL (≈ 107 µM) | 128 µg/mL (≈ 215 µM) | – |
| O=C(Cn1cc(C2CCCC2)nn1)Nc1ccc(NC(=O)Cn2cc(C3CCCC3)nn2)cc1 | 128 µg/mL (≈ 277 µM) | 32 µg/mL (≈ 69.2 µM) | 67.1% | 64 µg/mL (≈ 138 µM) | Active | 32 µg/mL (≈ 69.2 µM) | 64 µg/mL (≈ 138 µM) | Active | 32 µg/mL (≈ 69.2 µM) | 64 µg/mL (≈ 138 µM) | 64 µg/mL (≈ 138 µM) | 20.6% |
| O=C(Cn1cc(C2CC2)nn1)Nc1ccc(NC(=O)Cn2cc(C3CC3)nn2)cc1 | 64 µg/mL (≈ 157 µM) | 64 µg/mL (≈ 157 µM) | 76.5% | 64 µg/mL (≈ 157 µM) | Active | 128 µg/mL (≈ 315 µM) | 128 µg/mL (≈ 315 µM) | Active | 64 µg/mL (≈ 157 µM) | 128 µg/mL (≈ 315 µM) | 128 µg/mL (≈ 315 µM) | – |
| CCOC(=O)c1cn(CC(=O)Nc2ccc(NC(=O)Cn3cc(C(=O)OCC)nn3)cc2)nn1 | 128 µg/mL (≈ 272 µM) | 64 µg/mL (≈ 136 µM) | 46.5% | 64 µg/mL (≈ 136 µM) | Active | 64 µg/mL (≈ 136 µM) | 64 µg/mL (≈ 136 µM) | Active | 32 µg/mL (≈ 68 µM) | 32 µg/mL (≈ 68 µM) | 64 µg/mL (≈ 136 µM) | – |
